Laboratory results: patent US20090054412A1, “Treatment of Sleep Disorders” (priority 2007, published 2009)
Several values for one entry are separate records, joined by “and”; a condition that tells them apart may be missing. Identical values can stand only once.

Tests used:
[1] = biological target: T1, rat GABAA receptors α1β2γ2 (Rattus norvegicus, UniProt P18508+P62813); experiment: Stimulation of GABA (EC3-5)-elicited currents in Xenopus oocytes, two-electrode voltage clamp, α1β2γ2; assay type: cell-based; settings: for Standardized Efficacy: standardized to stimulation by 1 μM diazepam (100%)
T1 construct: expressed in transfected cells; host or cells: Xenopus laevis oocytes, cRNA microinjected
Text: (§1) 7-Chloro-3-(5-dimethylaminomethyl-[1,2,4]oxadiazol-3-yl)-5methyl-4,5-dihydro-imidazol[1,5,-a][1,4]benzodiazepine-6-one was used to test the effects of the compound of formula (II): […]
(§2) Similar procedures were chosen as for the investigation of other GABAA receptor subunit specific substances (e.g., Baur et al., 2005; Mol. Pharmacol. 68, 787-792).
(§3) Lobes of the ovary containing the follicles were obtained by surgical procedures from female Xenopus laevis. Follicles were singled out using a platinum loop. Fifty nL of cRNA solution at a ratio of αx:β2:γ2 of 1:1:5 (3.3-10 nM αx (x=1,2,3,5); 3.3-10 nM β2; 16.7-50 nM γ2) (Boileau et al., 2002; Neuropharmacology 43, 695-700) were microinjected into Xenopus follicles. Several hours after microinjection the follicles were freed of follicular layers and adhering connective tissue by a collagenase/hypertonic shock procedure (Sigel, 1987; J. Physiol.(Land) 386, 73-90). Oocytes were kept at constant 18° C. until measurement (1-4 days) in a modified Barth solution (88 mM NaCl, 1 mM KCl, 2.4 mM NaHCO3, 10 mM Hepes-NaOH (pH 7.5), 0.82 mM MgSO4×7H2O, 0.34 mM Ca(NO3)2×4H2O, 0.41 mM CaCl2×2H2O, 100 U Penicillin/mL, 100 μg Streptomycin/mL, sterile filtered).
(§4) Currents were measured using a home-built amplifier in combination with a xy-recorder or were digitized using a MacLab/200 (AD Instruments) and stored on a computer. Xenopus oocytes were voltage clamped using the two-electrode voltage clamp technique (electrode resistance about 0.8 MΩ) at −80 mV. The medium contained 90 mM NaCl, 1 mM KCl, 1 mM MgCl2, 1 mM CaCl2, 10 mM Na-Hepes (pH 7.4) and 0.5% DMSO.
(§5) GABA was applied for 20-50 seconds without or in combination with other drugs and a washout period of 4 minutes was allowed to ensure full recovery from desensitization, which was experimentally determined. The perfusion solution (6 mL/min) was applied through a glass capillary with an inner diameter of 1.35 mm, the mouth of which was placed about 0.4 mm from the surface of the oocyte. The rate of solution change under our conditions has been estimated 70% within less than 0.5 s (Sigel et al., 1990; Neuron 5, 703-711). The entire perfusion system and the assay chamber were cleaned between drug applications by washing with DMSO.
(§6) Data is given as mean±SD, except in the figures where data is shown for clarity as mean±SEM. Current stimulation was calculated as follows: stimulation (%)=((I(GABA+modulator)−I(GABA))/I(GABA))×100%, where I is the current amplitude. Where indicated, the stimulation was standardized to the stimulation by 1 μM diazepam (100%). To obtain FIGS. 1-4, values for current stimulation obtained at a given concentration of modulator at a given subunit combination were averaged. The data points were fitted with the equation stimulation=efficacy/(1+(potency/concentration of modulator)). The values given in the Tables (Summary) are obtained by fitting individual curves and subsequently averaging efficacy and potency.
GABA (EC3-5) was applied to an oocyte expressing α1β2γ2 GABAA receptors several times until the current response was stable. The GABA (EC3-5) refers to the effective concentration of GABA, which produces a response that is 3-5% of the maximal response to high concentrations of GABA. Such a low concentration of GABA is chosen in order to better see the potentiating effect of positive allosteric modulators.
GABA was then applied in combination with various concentrations of the compound of formula (II) between 0.3 nM and 3,000 nM to produce a cumulative concentration response curve. […] In each batch of oocytes the stimulation by 1 μM diazepam was determined in five ocytes, extent of stimulation averaged and defined as 100%. Where indicated, stimulation by the compound of formula (II) in each batch of ocytes was expressed as a percentage of this value in the corresponding batch.
GABA (EC3-5) was applied to an oocyte expressing α1β2γ2 GABAA receptors several times until the current response was stable.

[2] = biological target: T2, rat GABAA receptors α5β2γ2 (Rattus norvegicus, UniProt P18508+P19969); experiment: Stimulation of GABA (EC3-5)-elicited currents in Xenopus oocytes, two-electrode voltage clamp, α5β2γ2; assay type: cell-based
T2 construct: expressed in transfected cells; host or cells: Xenopus laevis oocytes, cRNA microinjected
Text: as §1, §2, §3, §4, §5, §6
(§7) Concentration response curves were also performed with oocytes expressing α2β2γ2, α3β2γ2, or α5β2γ2, after establishing the optimal concentration range as indicated above. […] Averaged data of the individual curves summarizing the effects of the compound of formula (II) are shown below for unstandardized and standardized stimulation.
(§8) Concentration response curves were also performed with oocytes expressing α2β2γ2, α3β2γ2, or α5β2γ2.
(§9) Current stimulation by diazepam was determined in each batch of oocytes as follows. GABA (EC3-5) was applied until a stable response was obtained. Subsequently, GABA was applied in combination with 1 μM diazepam.

[3] = biological target: T3, rat GABAA receptors α3β2γ2 (Rattus norvegicus, UniProt P18508+P20236); experiment: Stimulation of GABA (EC3-5)-elicited currents in Xenopus oocytes, two-electrode voltage clamp, α3β2γ2; assay type: cell-based
T3 construct: expressed in transfected cells; host or cells: Xenopus laevis oocytes, cRNA microinjected
Text: as §1, §2, §3, §4, §5, §6, §7, §8, §9

[4] = test system: GABAA receptors; settings: 20 mg, in man, PET; cited from earlier work
[5] = biological target: T4, rat GABAA receptors α2β2γ2 (Rattus norvegicus, UniProt P18508+P23576); experiment: Stimulation of GABA (EC3-5)-elicited currents in Xenopus oocytes, two-electrode voltage clamp, α2β2γ2; assay type: cell-based
T4 construct: expressed in transfected cells; host or cells: Xenopus laevis oocytes, cRNA microinjected
Text: as §1, §2, §3, §4, §5, §6, §7, §8, §9

[6] = standardized to stimulation by 1 μM diazepam (100%)
[7] = unstandardized current stimulation
[8] = 1 μM, different batches of oocytes, n=5

T3 sequence (P20236 29-493): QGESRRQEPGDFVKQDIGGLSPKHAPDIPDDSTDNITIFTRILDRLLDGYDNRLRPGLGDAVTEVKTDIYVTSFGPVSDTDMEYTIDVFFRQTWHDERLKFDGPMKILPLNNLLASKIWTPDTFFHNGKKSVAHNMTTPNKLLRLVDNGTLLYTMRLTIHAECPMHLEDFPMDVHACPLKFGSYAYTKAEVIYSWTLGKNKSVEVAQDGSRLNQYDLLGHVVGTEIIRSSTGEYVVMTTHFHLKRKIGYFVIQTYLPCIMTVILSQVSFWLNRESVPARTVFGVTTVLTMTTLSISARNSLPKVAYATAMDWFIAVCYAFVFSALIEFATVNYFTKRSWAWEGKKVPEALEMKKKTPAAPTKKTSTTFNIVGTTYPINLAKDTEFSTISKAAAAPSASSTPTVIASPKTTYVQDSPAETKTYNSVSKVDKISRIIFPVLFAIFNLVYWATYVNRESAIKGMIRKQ
T3 sequence (P63138 25-474 partner limits assumed): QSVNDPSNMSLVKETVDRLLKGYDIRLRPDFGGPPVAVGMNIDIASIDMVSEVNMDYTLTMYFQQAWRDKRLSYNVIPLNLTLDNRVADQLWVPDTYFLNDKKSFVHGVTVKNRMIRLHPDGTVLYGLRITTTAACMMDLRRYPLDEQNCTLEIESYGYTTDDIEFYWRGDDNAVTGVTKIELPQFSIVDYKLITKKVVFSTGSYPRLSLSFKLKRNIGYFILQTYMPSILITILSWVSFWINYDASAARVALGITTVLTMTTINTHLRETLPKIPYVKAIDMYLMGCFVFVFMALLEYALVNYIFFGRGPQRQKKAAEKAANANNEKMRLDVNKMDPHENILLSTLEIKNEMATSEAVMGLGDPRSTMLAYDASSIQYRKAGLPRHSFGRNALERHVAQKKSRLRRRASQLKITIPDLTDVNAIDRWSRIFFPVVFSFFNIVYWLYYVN
T3 sequence (P18508 39-466): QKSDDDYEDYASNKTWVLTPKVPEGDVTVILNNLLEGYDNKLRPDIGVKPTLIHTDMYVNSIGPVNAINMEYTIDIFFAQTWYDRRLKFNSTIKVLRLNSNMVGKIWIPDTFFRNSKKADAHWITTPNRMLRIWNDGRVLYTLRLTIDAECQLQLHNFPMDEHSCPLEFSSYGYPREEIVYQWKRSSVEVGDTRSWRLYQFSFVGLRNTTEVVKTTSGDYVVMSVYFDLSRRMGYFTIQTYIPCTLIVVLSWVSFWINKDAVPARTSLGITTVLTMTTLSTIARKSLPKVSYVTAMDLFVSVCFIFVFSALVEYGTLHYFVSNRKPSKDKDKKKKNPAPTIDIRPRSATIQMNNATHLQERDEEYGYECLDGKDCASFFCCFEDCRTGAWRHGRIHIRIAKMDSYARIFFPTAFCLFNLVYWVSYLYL
T4 sequence (P23576 29-451): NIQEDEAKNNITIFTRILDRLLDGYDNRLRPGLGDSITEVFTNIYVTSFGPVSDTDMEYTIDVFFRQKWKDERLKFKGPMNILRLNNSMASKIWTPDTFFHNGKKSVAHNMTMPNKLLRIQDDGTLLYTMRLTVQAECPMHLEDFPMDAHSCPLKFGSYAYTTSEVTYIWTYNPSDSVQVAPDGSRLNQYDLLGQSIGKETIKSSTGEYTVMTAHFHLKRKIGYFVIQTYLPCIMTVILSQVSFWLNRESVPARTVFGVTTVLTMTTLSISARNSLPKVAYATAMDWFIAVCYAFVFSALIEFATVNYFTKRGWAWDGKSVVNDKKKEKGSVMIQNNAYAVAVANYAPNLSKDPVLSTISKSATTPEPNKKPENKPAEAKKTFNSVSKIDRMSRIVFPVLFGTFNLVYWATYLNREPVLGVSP
T4 sequence (P63138 25-474 partner limits assumed): as the sequence (P63138 25-474 partner limits assumed) above
T4 sequence (P18508 39-466): as the sequence (P18508 39-466) above
T2 sequence (P19969 32-464 limits assumed): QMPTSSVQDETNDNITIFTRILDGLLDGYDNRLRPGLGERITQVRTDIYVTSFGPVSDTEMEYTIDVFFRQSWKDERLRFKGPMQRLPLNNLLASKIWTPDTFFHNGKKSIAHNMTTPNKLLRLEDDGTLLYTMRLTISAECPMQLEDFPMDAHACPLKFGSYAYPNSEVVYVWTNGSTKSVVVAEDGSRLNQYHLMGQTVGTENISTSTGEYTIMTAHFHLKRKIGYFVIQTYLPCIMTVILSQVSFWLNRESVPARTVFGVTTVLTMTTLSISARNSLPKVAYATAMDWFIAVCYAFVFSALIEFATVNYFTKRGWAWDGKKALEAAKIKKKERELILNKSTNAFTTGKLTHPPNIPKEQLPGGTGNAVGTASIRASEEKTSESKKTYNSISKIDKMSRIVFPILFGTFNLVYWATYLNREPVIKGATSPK
T2 sequence (P63138 25-474 partner limits assumed): as the sequence (P63138 25-474 partner limits assumed) above
T2 sequence (P18508 39-466): as the sequence (P18508 39-466) above
T1 sequence (P62813 28-455): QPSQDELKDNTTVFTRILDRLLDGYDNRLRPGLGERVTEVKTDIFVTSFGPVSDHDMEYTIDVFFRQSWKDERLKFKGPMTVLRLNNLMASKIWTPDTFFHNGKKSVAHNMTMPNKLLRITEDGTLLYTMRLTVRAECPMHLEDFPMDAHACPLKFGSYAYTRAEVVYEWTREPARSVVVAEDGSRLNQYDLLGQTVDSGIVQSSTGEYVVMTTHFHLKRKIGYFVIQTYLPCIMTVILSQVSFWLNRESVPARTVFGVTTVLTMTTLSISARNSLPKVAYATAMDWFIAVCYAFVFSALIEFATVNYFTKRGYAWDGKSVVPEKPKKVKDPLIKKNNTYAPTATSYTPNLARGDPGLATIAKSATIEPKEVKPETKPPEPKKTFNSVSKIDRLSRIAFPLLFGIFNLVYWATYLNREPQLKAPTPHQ
T1 sequence (P63138 25-474 partner limits assumed): as the sequence (P63138 25-474 partner limits assumed) above
T1 sequence (P18508 39-466): as the sequence (P18508 39-466) above

Compound	Intrinsic activity / type of allosteric modulation ([1]; GABAA receptor benzodiazepine site, relative to diazepam)	Receptor subtype affinity ([1]; in comparison to α2β2γ2, α3β2γ2 and α5β2γ2)	Standardized Efficacy ([1]; α1β2γ2)	Standardized Efficacy ([1]; α1β2γ2, listed as zolpidem)	Efficacy ([1]; α1β2γ2, unstandardized current stimulation)	Standardized Efficacy [2, 6]	Efficacy [2, 7]	Standardized Efficacy [3, 6]	Efficacy [3, 7]	receptor occupancy [4]	Standardized Efficacy [5, 6]	Efficacy [5, 7]	Stimulation by 1 μM diazepam ([1]; α1β2γ2, 1 μM, different batches of oocytes, n=5)	Stimulation by 1 μM diazepam [2, 8]	Stimulation by 1 μM diazepam [3, 8]	Stimulation by 1 μM diazepam [5, 8]
Cc1ccc(-c2nc3ccc(C)cn3c2CC(=O)N(C)C)cc1 [Zolpidem, zolpidem]	full agonist	higher affinity at α1β2γ2 GABAA receptors	215 ± 74%	215%	429 ± 120%	16 ± 4%	33 ± 12%	166 ± 88%	691 ± 365%	about 20%	179 ± 23%	484 ± 60%	–	–	–	–
CN1C(=O)CN=C(c2ccccc2)c2cc(Cl)ccc21 [diazepam]	–	–	–	–	–	–	–	–	–	–	–	–	223+28% and 178+20%	237+97% and 160+4%	417+85% and 417+144%	264+61% and 280+71% and 318+62%
